# Assay results as given in patent US5126341A, “Anti-inflammatory 1,8-naphthyridin-2-one derivatives” (Kyowa Hakko Kogyo Co., Ltd., priority 1990, dated 1992).
# Where two headings read alike, the source gives them in different places.
# Legend:
# [1] = system: zymosan-induced paw edema; experiment: Effect on zymosan-induced paw edema; type: in vivo, male Wistar rats; conditions: rat, 100 mg/kg p.o., 1 hour before 1% zymosan; paw volume 4 hours after injection
# Description: b) Effect on zymosan-induced paw edema
# (§1) The experiment was carried out in the same manner as in the carrageenin-induced paw edema test except that 1% zymosan (Zymosan A®; Sigma Chemical Co.) was used in place of 1% carrageenin and the right hind paw volume was measured 4 hours after the injection of the edema-inducing substance instead of 3 hours. The swelling rate and the suppression rate were calculated by equation 1 and equation 2, respectively.
# [2] = system: Type III allergic reaction-induced pleurisy; experiment: Effect on Type III allergic reaction-induced pleurisy; type: in vivo, male Wistar rats; conditions: po, 4.5 h, rat, 100 mg/kg p.o., four and a half hours after induction of pleurisy
# Description: d) Effect on Type III allergic reaction-induced pleurisy
# IgG was purified from rabbit anti-OA serum prepared in advance by the method of Koda et al. [Folia Pharmacol., Japon 66, 237, (1970)] in the following manner.
# A saturated solution of ammonium sulfate (half volume of the serum) was added to the anti-OA serum, and the mixture was left for one hour at 4° C. The precipitate was taken by centrifugation (3,000 rpm, 30 min, 4° C.) and dissolved in phosphate buffered saline of Dulbecco. Then, ammonium sulfate fractionation was carried out three times in the same manner as above, whereby a purified IgG fraction was obtained.
# Male Wistar rats weighing 225-250 g were pre-bred for several days and fasted overnight prior to the experiment The test compound (100 mg/kg) was orally administered to the animals, and after 30 minutes, IgG of rabbit anti-OA (0.2 ml, 5 mg protein/ml) was injected into the pleural cavity of the animals under anesthesia with ether. Thirty minutes after the injection of IgG, OA (albumin egg grade III; Sigma Chemical Co.) was intravenously injected into the animals as an inducer of pleurisy. After two hours, Evans Blue (25 mg/kg) was intravenously injected, and four and a half hours after the induction of pleurisy, the animals were killed by bleeding.
# Then, an exudate in the pleural cavity was obtained, and the volume of the exudate was measured. The pleural cavity was rinsed with 5 ml of physiological saline and the rinsings were added to the exudate. The number of infiltrated cells in the mixture was counted and the volume of the dye in the mixture was determined by the absorption at 625 nm [Agent Actions., 25, 326 (1988)]. The suppression rates for the volume of the exudate, the number of infiltrated cells and the volume of the dye in the pleural cavity were calculated by the following equation 3. [formula]
# S.V: the value obtained with the group administered with the test compound and in which pleurisy is induced
# N.V: the value obtained with the group in which pleurisy is not induced
# P.V: the value obtained with the group administered with no test compound and in which pleurisy is induced
# [3] = system: male dd-mice; conditions: mouse, in vivo, 10080 min; for Acute toxicity (MLD, Minimum Lethal Dose) i.p.: ip; for Acute toxicity (MLD, Minimum Lethal Dose) p.o.: po
# Description: The test compounds were orally or intraperitoneally administered to male dd-mice weighing 20 to 25 g. MLD (Minimum Lethal Dose) was determined by observing the mortality for seven days after the administration.
# [4] = system: carrageenin-induced paw edema; experiment: Effect on carrageenin-induced paw edema; type: in vivo, male Wistar rats; conditions: po; rat, 100 mg/kg p.o., 1 hour before 1% carrageenin; paw volume 3 hours after injection; read-out: Suppression rate for paw swelling, (a) carrageenin-induced edema
# Description: a) Effect on carrageenin-induced paw edema
# Male Wistar rats weighing 150 to 160 g (n=3-5) were used in the experiment. After the right hind paw volume was measured with the plethysmograph (TK-101; Unicom Co., Ltd.), the test compound (100 mg/kg) was orally administered. After one hour, 0.1 ml of 1 % carrageenin (λ-carrageenin; PICNIN-A®, Zushi Kagaku Co., Ltd.) was subcutaneously injected into the right hind paw footpad. Three hours after the injection of carrageenin, the right hind paw volume was measured and the swelling rate was determined by the following equation 1. [formula]
# Vt: the right hind paw volume measured 3 hours after the injection of carrageenin
# Vo: the right hind paw volume measured prior to the injection of carrageenin
# The suppression rate was calculated by the following equation 2. [formula]
# Swt: the swelling rate of the group administered with the test compound
# Swc: the swelling rate of the control group administered with no test compound
# [5] = system: arachidonic acid-induced paw edema; experiment: Arachidonic acid-induced paw edema; type: in vivo, male Wistar rats; conditions: rat, 100 mg/kg p.o., 1 hour before 0.5% arachidonic acid; paw volume one hour after injection
# Description: c) Arachidonic acid-induced paw edema
# as §1, with “0.5% arachidonic acid” for “1% zymosan (Zymosan A®; Sigma Chemical Co.)”, “one hour” for “4 hours”
# [6] = Evans Blue 25 mg/kg i.v., absorption at 625 nm, read-out: Suppression rate, volume of dye in the exudate
# [7] = read-out: Suppression rate, volume of exudate
# [8] = read-out: Suppression rate, number of infiltrated cells in the exudate
SMILES,"Suppression rate for paw swelling, (b) zymosan-induced edema [1]","inhibition in vivo at 100 mg/kg [2, 6]","inhibition in vivo at 100 mg/kg [2, 7]","Acute toxicity (MLD, Minimum Lethal Dose) i.p. [3]","Acute toxicity (MLD, Minimum Lethal Dose) p.o. [3]",inhibition in vivo at 100 mg/kg [4],"inhibition in vivo at 100 mg/kg [2, 8]","Suppression rate for paw swelling, (c) arachidonic acid-induced edema [5]"
"CCCCNC(=O)c1c(O)c2cccnc2n(-c2ccccc2)c1=O [Compound 1, N-(n-Butyl)-4-hydroxy-2-oxo-1-phenyl-1H-1,8-naphthyridine-3-carboxamide]",20.5%,–,–,–,–,–,–,–
"CNC(=O)c1c(O)c2cccnc2n(-c2ccccc2)c1=O [Compound 2, 4-Hydroxy-N-methyl-2-oxo-1-phenyl-1H-1,8-naphthyridine-3-carboxamide]",–,28.3%,27.2%,–,–,–,–,–
"CN(C)NC(=O)c1c(O)c2cccnc2n(-c2ccccc2)c1=O [Compound 6, N-Dimethylamino-4-hydroxy-2-oxo-1-phenyl-1H-1,8-naphthyridine-3-carboxamide]",27.3%,–,–,> 100 mg/kg,> 300 mg/kg,31.7%,–,–
"CN(C)CCNC(=O)c1c(O)c2cccnc2n(-c2ccccc2)c1=O [Compound 7, N-(2-Dimethylaminoethyl)-4-hydroxy-2-oxo-1-phenyl-1H-1,8-naphthyridine-3-carboxamide]",–,–,–,> 100 mg/kg,> 300 mg/kg,23.2%,–,–
"O=C(Nc1cccc(Cl)c1)c1c(O)c2cccnc2n(-c2ccccc2)c1=O [Compound 8, N-(3-Chlorophenyl)-4-hydroxy-2-oxo-1-phenyl-1H-1,8-naphthyridine-3-carboxamide]",–,–,–,–,–,–,21.7%,–
"Cc1cccc(NC(=O)c2c(O)c3cccnc3n(-c3ccccc3)c2=O)c1 [Compound 9, 4-Hydroxy-N-(3-methylphenyl)-2-oxo-1-phenyl-1H-1,8-naphthyridine-3-carboxamide]",–,–,27.3%,> 100 mg/kg,> 300 mg/kg,25.2%,28.5%,–
"O=C(Nc1cccc([N+](=O)[O-])c1)c1c(O)c2cccnc2n(-c2ccccc2)c1=O [Compound 11, 4-Hydroxy-N-(3-nitrophenyl)-2-oxo-1-phenyl-1H-1,8-naphthyridine-3-carboxamide]",–,37.2%,22.1%,> 100 mg/kg,> 300 mg/kg,–,–,–
"O=C(Nc1nccs1)c1c(O)c2cccnc2n(-c2ccccc2)c1=O [Compound 12, 4-Hydroxy-2-oxo-1-phenyl-N-(2-thiazolyl)-1H-1,8-naphthyridine-3-carboxamide]",–,24%,–,–,–,–,–,–
"O=C(Nc1nc2ccccc2s1)c1c(O)c2cccnc2n(-c2ccccc2)c1=O [Compound 13, N-(2-Benzothiazolyl)-4-hydroxy-2-oxo-1-phenyl-1H-1,8-naphthyridine-3-carboxamide]",–,25.8%,28.9%,–,–,–,–,–
"COc1ccc(NC(=O)c2c(O)c3cccnc3n(-c3ccccc3)c2=O)cc1 [Compound 16, 4-Hydroxy-N-(4-methoxyphenyl)-2-oxo-1-phenyl-1H-1,8-naphthyridine-3-carboxamide]",–,–,–,–,–,–,25.4%,–
"Cc1ccc(NC(=O)c2c(O)c3cccnc3n(-c3ccccc3)c2=O)cc1 [Compound 17, 4-Hydroxy-N-(4-methylphenyl)-2-oxo-1-phenyl-1H-1,8-naphthyridine-3-carboxamide]",–,–,22.4%,–,–,–,21.5%,–
"COc1cccc(NC(=O)c2c(O)c3cccnc3n(-c3ccccc3)c2=O)c1 [Compound 18, 4-Hydroxy-N-(3-methoxyphenyl)-2-oxo-1-phenyl-1H-1,8-naphthyridine-3-carboxamide]",–,–,26.9%,–,–,–,22.1%,–
"COc1ccccc1NC(=O)c1c(O)c2cccnc2n(-c2ccccc2)c1=O [Compound 19, 4-Hydroxy-N-(2-methoxyphenyl)-2-oxo-1-phenyl-1H-1,8-naphthyridine-3-carboxamide]",–,–,–,> 100 mg/kg,> 300 mg/kg,34.2%,26.8%,–
"O=C(NC1CCN(Cc2ccccc2)CC1)c1c(O)c2cccnc2n(-c2ccccc2)c1=O [Compound 21, N-(1-Benzylpiperidin-4-yl)-4-hydroxy-2-oxo-1-phenyl-1H-1,8-naphthyridine-3-carboxamide]",–,50.2%,32.4%,–,–,–,22.1%,–
"O=C(NC1=NCCS1)c1c(O)c2cccnc2n(-c2ccccc2)c1=O [Compound 22, 4-Hydroxy-2-oxo-1-phenyl-N-(thiazolin-2-yl)-1H-1,8-naphthyridine-3-carboxamide]",–,51%,89.2%,> 100 mg/kg,> 300 mg/kg,–,34.6%,33.4%
"O=C(Nc1cnccn1)c1c(O)c2cccnc2n(-c2ccccc2)c1=O [Compound 23, 4-Hydroxy-2-oxo-1-phenyl-N-(pyrazin-2-yl)-1H-1,8-naphthyridine-3-carboxamide]",22.2%,43.2%,24%,> 100 mg/kg,> 300 mg/kg,22.7%,26.7%,–
"CCc1nnc(NC(=O)c2c(O)c3cccnc3n(-c3ccccc3)c2=O)s1 [Compound 24, 4-Hydroxy-2-oxo-1-phenyl-N-(5-ethyl-1,3,4-thiadiazol-2-yl)-1H-1,8-naphthyridine-3-carboxamide]",–,32.1%,29.7%,–,–,–,–,–
"O=C(NN1CCOCC1)c1c(O)c2cccnc2n(-c2ccccc2)c1=O [Compound 27, 4-Hydroxy-N-morpholino-2-oxo-1-phenyl-1H-1,8-naphthyridine-3-carboxamide]",–,23.6%,–,–,–,–,–,–
"O=C(NCc1ccncc1)c1c(O)c2cccnc2n(-c2ccccc2)c1=O [Compound 28, 4-Hydroxy-2-oxo-1-phenyl-N-(4-pyridylmethyl)-1H-1,8-naphthyridine-3-carboxamide]",–,–,–,> 100 mg/kg,> 300 mg/kg,27.3%,–,41.6%
"O=C(NCc1cccnc1)c1c(O)c2cccnc2n(-c2ccccc2)c1=O [Compound 29, 4-Hydroxy-2-oxo-1-phenyl-N-(3-pyridylmethyl)-1H-1,8-naphthyridine-3-carboxamide]",–,–,–,> 100 mg/kg,> 300 mg/kg,–,–,33.3%
